{"source": "patent US11767319B2", "about": "“Crystalline forms of a selective c-kit kinase inhibitor” (Third Harmonic Bio, Inc., priority 2020, dated 2023)", "assay_type_in_all_cases": "physicochemical", "key": {"[1]": {"test": "Slurry experiments in SGF", "conditions": "37° C., 500 rpm", "description": "About 200 mg of sodium chloride and about 100 mg Triton X-100 was weighted into a 100-mL volumetric flask. About 100 mL of purified water was added to the flask and the solution was sonicated until all solids were completely dissolved. 1 M HCl was added to adjust the pH to 1.8 and the solution was mixed well and the pH was checked with a pH meter.\nCompetitive slurry experiments were performed for Forms A, H^A, H^B, C and D in SGF. About 10 mg of each form was added into separate HPLC vials followed by addition of 1.0 mL SGF in order to form slurries. The slurries were heated to 37° C. and stirred at 500 rpm. After 2 h or 24 h, the samples were centrifuged and the solids were collected for XRPD testing."}, "[2]": {"test": "Variable temperature XRPD of Form D", "conditions": "heating to 150° C. or cooling to 30° C. under N2 purge", "description": "FIG. 2D depicts a variable temperature XRPD of Form D of compound 1. The variable temperature experiment was conducted to further investigate the weight loss observed in the TGA curve."}, "[3]": {"test": "Competitive slurry experiments among anhydrates (IPA/IPAc)", "conditions": "at RT and 50° C., IPA/IPAc slurries", "description": "Competitive slurry experiments were performed in IPA/IPAc at RT/50° C. between anhydrates Form A of compound 1 and Form D of compound 1. Form A of compound 1 was added into each solvent to form a slurry at RT or 50° C. and was stirred for 2 h. The slurries were then filtered to obtain saturated solution. Around 10 mg each of Form A of compound 1 and Form D of compound 1 were added into each solution to form a mixed slurry at RT or 50° C. […] The formation of Form H^A of compound 1 is postulated to be caused by residual water in the solvents or due to ambient humidity (˜35% humidity during slurry experiments)."}}, "data": [{"smiles": "Cc1ccc(-c2noc([C@H]3C[C@@H]3F)n2)cc1NC(=O)c1cnc2ccccn12", "note": "[Form D, N-(5-(5-((1R,2S)-2-fluorocyclopropyl)-1,2,4-oxadiazol-3-yl)-2-methylphenyl)imidazo[1,2-a]pyridine-3-carboxamide]", "values": [{"measurement": "XRPD at 2 h", "setting": "[1]; 2 h", "value": "transformed to Form C"}, {"measurement": "XRPD at 24 h", "setting": "[1]; 24 h", "value": "a mixture of Form C and an HCl salt form"}, {"measurement": "form change in variable temperature XRPD", "setting": "[2]", "value": "no form change"}, {"measurement": "relative thermodynamic stability", "setting": "[3]", "value": "thermodynamically more stable than Form A"}]}]}
